Assay results: patent US20240294508A1, “RIP1 MODULATORS INCLUDING AZETIDINE CYCLIC UREAS, PREPARATIONS, AND USES THEREOF” (SIRONAX LTD., priority 2021, published 2024)

System: HT-29 cells
Test: HT29 cells 0FBS assay in vitro: TNF-α/SMAC mimetic/zVAD-FMK induced necroptosis, CellTiter-Glo cell viability (RIP1 inhibitory activity)
Format: cell-based
Details: Homo sapiens, FBS free medium, TNF-α (10 ng/ml) + SMAC mimetic (6 uM) + zVAD-FMK (10 μM), 20 hours, geometric mean EC50
In short: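 Luminescent ATP read-out (CellTiter-Glo) gave viability of HT-29 cells after 20 h at 37° C in serum-free medium containing compound and a necroptosis cocktail of 10 ng/ml TNF-α, 6 uM SMAC mimetic and 10 μM zVAD-FMK. EC50s are geometric means of 10-point curves run in duplicate.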

`CNC(=O)c1c(C)nn(-c2cc(OC3CN(C(=O)N4N=CC[C@H]4c4cc(F)cc(C#N)c4)C3)c(F)cn2)c1C` [Compound 80, (S)-1-(4-((1-(5-(3-cyano-5-fluorophenyl)-4,5-dihydro-1H-pyrazole-1-carbonyl)azetidin-3-yl)oxy)-5-fluoropyridin-2-yl)-N,3,5-trimethyl-1H-pyrazole-4-carboxamide] and `CCNC(=O)c1c(C)nn(-c2cc(OC3CN(C(=O)N4N=CC[C@H]4c4cc(F)cc(C#N)c4)C3)c(F)cn2)c1C` [Compound 87, (S)-1-(4-((1-(5-(3-cyano-5-fluorophenyl)-4,5-dihydro-1H-pyrazole-1-carbonyl)azetidin-3-yl)oxy)-5-fluoropyridin-2-yl)-N-ethyl-3,5-dimethyl-1H-pyrazole-4-carboxamide] fall in the same range of EC50: 0.1 to 100 nM for the first, 0.1 to 100 nM for the second.

First: CNC(=O)c1c(C)nn(-c2cc(OC3CN(C(=O)N4N=CC[C@H]4c4cncc(C#N)c4)C3)c(F)cn2)c1C [Compound 81, (S)-1-(4-((1-(5-(5-cyanopyridin-3-yl)-4,5-dihydro-1H-pyrazole-1-carbonyl)azetidin-3-yl)oxy)-5-fluoropyridin-2-yl)-N,3,5-trimethyl-1H-pyrazole-4-carboxamide]
Second: Cc1nn(-c2cc(OC3CN(C(=O)N4N=CC[C@H]4c4cc(F)cc(C#N)c4)C3)c(F)cn2)c(C)c1C(=O)O [Compound 83, (S)-1-(4-((1-(5-(3-cyano-5-fluorophenyl)-4,5-dihydro-1H-pyrazole-1-carbonyl)azetidin-3-yl)oxy)-5-fluoropyridin-2-yl)-3,5-dimethyl-1H-pyrazole-4-carboxylic acid]
The EC50 of the first is higher: 100 to 1000 nM for the first, 0.1 to 100 nM for the second. The second is the more potent here.

Compared with `Cc1nn(-c2cc(OC3CN(C(=O)N4N=CC[C@H]4c4cccc(F)c4)C3)c(F)cn2)c(C)c1C(=O)O` [Compound 82, (S)-1-(5-fluoro-4-((1-(5-(3-fluorophenyl)-4,5-dihydro-1H-pyrazole-1-carbonyl)azetidin-3-yl)oxy)pyridin-2-yl)-3,5-dimethyl-1H-pyrazole-4-carb oxylic acid], `Cc1nn(-c2cc(OC3CN(C(=O)N4N=CC[C@@H]4c4cccc(F)c4)C3)c(F)cn2)c(C)c1C(N)=O` [Compound 98, (R)-1-(5-fluoro-4-((1-(5-(3-fluorophenyl)-4,5-dihydro-1H-pyrazole-1-carbonyl)azetidin-3-yl)oxy)pyridin-2-yl)-3,5-dimethyl-1H-pyrazole-4-carb oxamide] is higher in EC50: 0.1 to 100 nM for the first, 1000 to 10000 nM for the second.

`Cc1nn(-c2cc(OC3CN(C(=O)N4N=CC[C@H]4c4ccccc4)C3)c(F)cn2)c(C)c1C(=O)O` [Compound 84, (S)-1-(5-fluoro-4-((1-(5-phenyl-4,5-dihydro-1H-pyrazole-1-carbonyl)azetidin-3-yl)oxy)pyridin-2-yl)-3,5-dimethyl-1H-pyrazole-4-carboxylic acid] and `Cc1nn(-c2cc(OC3CN(C(=O)N4N=CC[C@H]4c4cc(F)cc(F)c4F)C3)c(F)cn2)c(C)c1C(=O)O` [Compound 104, (S)-1-(5-fluoro-4-((1-(5-(2,3,5-trifluorophenyl)-4,5-dihydro-1H-pyrazole-1-carbonyl)azetidin-3-yl)oxy)pyridin-2-yl)-3,5-dimethyl-1H-pyrazole-4-carboxylic acid] fall in the same range of EC50: 0.1 to 100 nM for the first, 0.1 to 100 nM for the second.

`Cc1nn(-c2cc(OC3CN(C(=O)N4N=CC[C@H]4c4cc(F)cc(C#N)c4)C3)c(F)cn2)c(C)c1C(=O)NC1COC1` [Compound 85, (S)-1-(4-((1-(5-(3-cyano-5-fluorophenyl)-4,5-dihydro-1H-pyrazole-1-carbonyl)azetidin-3-yl)oxy)-5-fluoropyridin-2-yl)-3,5-dimethyl-N-(oxetan-3-yl)-1H-pyrazole-4-carboxamide] and `Cc1nn(-c2cc(OC3CN(C(=O)N4N=CC[C@H]4c4cc(F)cc(C#N)c4)C3)c(F)cn2)c(C)c1C(=O)NC1CC1` [Compound 86, (S)-1-(4-((1-(5-(3-cyano-5-fluorophenyl)-4,5-dihydro-1H-pyrazole-1-carbonyl)azetidin-3-yl)oxy)-5-fluoropyridin-2-yl)-N-cyclopropyl-3,5-dimethyl-1H-pyrazole-4-carboxamide] fall in the same range of EC50: 0.1 to 100 nM for the first, 0.1 to 100 nM for the second.

`Cc1ncc(C2CC=NN2C(=O)N2CC(Oc3cc(-c4c(C)cnn4C)ncc3F)C2)s1` (stereo not drawn) [Compound 88, (3-((2-(1,4-dimethyl-1H-pyrazol-5-yl)-5-fluoropyridin-4-yl)oxy)azetidin-1-yl)(5-(2-methylthiazol-5-yl)-4,5-dihydro-1H-pyrazol-1-yl)methanone] and `Cc1cnc(C2CC=NN2C(=O)N2CC(Oc3cc(-c4c(C)cnn4C)ncc3F)C2)s1` (stereo not drawn) [Compound 94, (3-((2-(1,4-dimethyl-1H-pyrazol-5-yl)-5-fluoropyridin-4-yl)oxy)azetidin-1-yl)(5-(5-methylthiazol-2-yl)-4,5-dihydro-1H-pyrazol-1-yl)methanone] fall in the same range of EC50: 0.1 to 100 nM for the first, 0.1 to 100 nM for the second.

`Cc1noc(C)c1-c1cc(OC2CN(C(=O)N3N=CC[C@H]3c3cc(F)cc(C#N)c3)C2)c(F)cn1` [Compound 89, (S)-3-(1-(3-((2-(3,5-dimethylisoxazol-4-yl)-5-fluoropyridin-4-yl)oxy)azetidine-1-carbonyl)-4,5-dihydro-1H-pyrazol-5-yl)-5-fluorobenzonitrile] and `Cc1cncc(C2CC=NN2C(=O)N2CC(Oc3cc(-c4c(C)cnn4C)ncc3F)C2)c1` (stereo not drawn) [Compound 101, (3-((2-(1,4-dimethyl-1H-pyrazol-5-yl)-5-fluoropyridin-4-yl)oxy)azetidin-1-yl)(5-(5-methylpyridin-3-yl)-4,5-dihydro-1H-pyrazol-1-yl)methanone] fall in the same range of EC50: 0.1 to 100 nM for the first, 0.1 to 100 nM for the second.

`Cc1nc(C2CC=NN2C(=O)N2CC(Oc3cc(-c4c(C)cnn4C)ncc3F)C2)co1` (stereo not drawn) [Compound 90, (3-((2-(1,4-dimethyl-1H-pyrazol-5-yl)-5-fluoropyridin-4-yl)oxy)azetidin-1-yl)(5-(2-methyloxazol-4-yl)-4,5-dihydro-1H-pyrazol-1-yl)methanone] and `Cc1nc(C2CC=NN2C(=O)N2CC(Oc3cc(-c4c(C)cnn4C)ncc3F)C2)cs1` (stereo not drawn) [Compound 96, (3-((2-(1,4-dimethyl-1H-pyrazol-5-yl)-5-fluoropyridin-4-yl)oxy)azetidin-1-yl)(5-(2-methylthiazol-4-yl)-4,5-dihydro-1H-pyrazol-1-yl)methanone] fall in the same range of EC50: 0.1 to 100 nM for the first, 0.1 to 100 nM for the second.

`Cc1cnn(C)c1-c1cc(OC2CN(C(=O)N3N=CCC3c3cncs3)C2)c(F)cn1` (stereo not drawn) [Compound 91, (3-((2-(1,4-dimethyl-1H-pyrazol-5-yl)-5-fluoropyridin-4-yl)oxy)azetidin-1-yl)(5-(thiazol-5-yl)-4,5-dihydro-1H-pyrazol-1-yl)methanone] and `Cc1cnn(C)c1-c1cc(OC2CN(C(=O)N3N=CCC3c3nccs3)C2)c(F)cn1` (stereo not drawn) [Compound 92, (3-((2-(1,4-dimethyl-1H-pyrazol-5-yl)-5-fluoropyridin-4-yl)oxy)azetidin-1-yl)(5-(thiazol-2-yl)-4,5-dihydro-1H-pyrazol-1-yl)methanone] fall in the same range of EC50: 0.1 to 100 nM for the first, 0.1 to 100 nM for the second.

`Cc1cnn(C)c1-c1cc(OC2CN(C(=O)N3N=CCC3c3ncccc3Cl)C2)c(F)cn1` (stereo not drawn) [Compound 93, (5-(3-chloropyridin-2-yl)-4,5-dihydro-1H-pyrazol-1-yl)(3-((2-(1,4-dimethyl-1H-pyrazol-5-yl)-5-fluoropyridin-4-yl)oxy)azetidin-1-yl)methanone] and `Cc1cnn(C)c1-c1cc(OC2CN(C(=O)N3N=CCC3c3ccccn3)C2)c(F)cn1` (stereo not drawn) [Compound 100, (3-((2-(1,4-dimethyl-1H-pyrazol-5-yl)-5-fluoropyridin-4-yl)oxy)azetidin-1-yl)(5-(pyridin-2-yl)-4,5-dihydro-1H-pyrazol-1-yl)methanone] fall in the same range of EC50: 0.1 to 100 nM for the first, 0.1 to 100 nM for the second.

Compared with `Cc1cnn(C)c1-c1cc(OC2CN(C(=O)N3N=CCC3c3cscn3)C2)c(F)cn1` (stereo not drawn) [Compound 95, (3-((2-(1,4-dimethyl-1H-pyrazol-5-yl)-5-fluoropyridin-4-yl)oxy)azetidin-1-yl)(5-(thiazol-4-yl)-4,5-dihydro-1H-pyrazol-1-yl)methanone], `Cc1csc(C2CC=NN2C(=O)N2CC(Oc3cc(-c4c(C)cnn4C)ncc3F)C2)n1` (stereo not drawn) [Compound 97, (3-((2-(1,4-dimethyl-1H-pyrazol-5-yl)-5-fluoropyridin-4-yl)oxy)azetidin-1-yl)(5-(4-methylthiazol-2-yl)-4,5-dihydro-1H-pyrazol-1-yl)methanone] is higher in EC50: 0.1 to 100 nM for the first, 100 to 1000 nM for the second.

`Cc1cnn(C)c1-c1cc(OC2CN(C(=O)N3N=CCC3c3cccnc3)C2)c(F)cn1` (stereo not drawn) [Compound 99, (3-((2-(1,4-dimethyl-1H-pyrazol-5-yl)-5-fluoropyridin-4-yl)oxy)azetidin-1-yl)(5-(pyridin-3-yl)-4,5-dihydro-1H-pyrazol-1-yl)methanone] and `Cc1ncc(C2CC=NN2C(=O)N2CC(Oc3nc(-c4c(C)cnn4C)ccc3F)C2)s1` (stereo not drawn) [Compound 106, (3-((6-(1,4-dimethyl-1H-pyrazol-5-yl)-3-fluoropyridin-2-yl)oxy)azetidin-1-yl)(5-(2-methylthiazol-5-yl)-4,5-dihydro-1H-pyrazol-1-yl)methanone] fall in the same range of EC50: 0.1 to 100 nM for the first, 0.1 to 100 nM for the second.

Compared with `Cc1nn(-c2cc(OC3CN(C(=O)N4N=CC[C@H]4c4cc(F)cc(F)c4F)C3)c(F)cn2)c(C)c1C(N)=O` [Compound 102, (S)-1-(5-fluoro-4-((1-(5-(2,3,5-trifluorophenyl)-4,5-dihydro-1H-pyrazole-1-carbonyl)azetidin-3-yl)oxy)pyridin-2-yl)-3,5-dimethyl-1H-pyrazole-4-carboxamide], `Cc1nn(-c2cc(OC3CN(C(=O)N4N=CC[C@@H]4c4cc(F)cc(F)c4F)C3)c(F)cn2)c(C)c1C(N)=O` [Compound 103, (R)-1-(5-fluoro-4-((1-(5-(2,3,5-trifluorophenyl)-4,5-dihydro-1H-pyrazole-1-carbonyl)azetidin-3-yl)oxy)pyridin-2-yl)-3,5-dimethyl-1H-pyrazole-4-carboxamide] is higher in EC50: 0.1 to 100 nM for the first, 1000 to 10000 nM for the second.

`Cc1nn(-c2cc(OC3CN(C(=O)N4N=CC[C@@H]4c4cc(F)cc(F)c4F)C3)c(F)cn2)c(C)c1C(=O)O` [Compound 105, (R)-1-(5-fluoro-4-((1-(5-(2,3,5-trifluorophenyl)-4,5-dihydro-1H-pyrazole-1-carbonyl)azetidin-3-yl)oxy)pyridin-2-yl)-3,5-dimethyl-1H-pyrazole-4-carboxylic acid] gave an EC50 of 1000 to 10000 nM.
